This test deals with T1, histamine H4 receptor (Homo sapiens, UniProt Q9H3N8).
T1 construct: expressed in transfected cells; host or cells: HEK293SFM cells (membrane preparation)
Kind of test: Inhibition of histamine H4 receptor (Table A1; H4 membrane binding assay). Conditions: histamine H4 receptor; "> a" = exceeds experiment limit. An outline of the steps: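 Membranes came from recombinant HEK293SFM cells expressing human H4, homogenized in 50 mM Tris-HCl pH 7.5 with protease inhibitors. Nonspecific binding was set with 1000× unlabeled ligand. Bound radioligand was separated on PEI-treated GF/B filters and counted by liquid scintillation.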

9 compounds from patent US20130244999A1, “Substituted Heterocyclic Compounds” (Incyte Corporation, priority 2008, published 2013) can be followed below.

T1 sequence (Q9H3N8 whole entry): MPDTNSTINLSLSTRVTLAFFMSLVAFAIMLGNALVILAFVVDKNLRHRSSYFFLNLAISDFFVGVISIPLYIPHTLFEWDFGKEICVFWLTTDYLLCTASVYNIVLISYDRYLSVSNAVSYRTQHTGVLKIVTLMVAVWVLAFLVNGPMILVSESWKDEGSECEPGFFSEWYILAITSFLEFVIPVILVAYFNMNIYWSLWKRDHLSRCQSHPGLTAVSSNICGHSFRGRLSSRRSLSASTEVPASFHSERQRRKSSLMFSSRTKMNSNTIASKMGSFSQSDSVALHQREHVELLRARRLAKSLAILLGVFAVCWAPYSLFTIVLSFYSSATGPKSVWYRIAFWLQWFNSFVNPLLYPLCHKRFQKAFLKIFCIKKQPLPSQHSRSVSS

`CCNC(=O)N1CCC(c2ccc3c(c2)CN(c2cc(N4CCN(C)CC4)nc(N)n2)C(C)C3)CC1` (stereo not drawn) [Example 145, 4-{2-[2-Amino-6-(4-methylpiperazin-1-yl)pyrimidin-4-yl]-3-methyl-1,2,3,4-tetrahydroisoquinolin-7-yl}-N-ethylpiperidine-1-carboxamide]: the IC50 (commonly the midpoint of a concentration-inhibition curve) was 0.036 µM. `CC(=O)N1CCC(c2ccc3c(c2)CN(c2cc(N4CCN(C)CC4)nc(N)n2)C(C)C3)CC1` (stereo not drawn) [Example 146, 4-[7-(1-Acetylpiperidin-4-yl)-3-methyl-3,4-dihydroisoquinolin-2 (1H)-yl]-6-(4-methylpiperazin-1-yl)pyrimidin-2-amine] registered an IC50 of 0.0228 µM. `COC(=O)N1CCC(c2ccc3c(c2)CN(c2cc(N4CCN(C)CC4)nc(N)n2)C(C)C3)CC1` (stereo not drawn) [Example 147, Methyl 4-{2-[2-amino-6-(4-methylpiperazin-1-yl)pyrimidin-4-yl]-3-methyl-1,2,3,4-tetrahydroisoquinolin-7-yl}piperidine-1-carboxylate] had a concentration for half-maximal inhibition (IC50) of 0.0121 µM.

On to `CC1Cc2ccc(C3CCN(S(C)(=O)=O)CC3)cc2CN1c1cc(N2CCN(C)CC2)nc(N)n1` (stereo not drawn) [Example 148, 4-[3-Methyl-7-[1-(methylsulfonyl)piperidin-4-yl]-3,4-dihydroisoquinolin-2(1H)-yl]-6-(4-methylpiperazin-1-yl)pyrimidin-2-amine], for which the IC50 came to 0.0306 µM. For `CCC(=O)N1CCC(c2ccc3c(c2)CN(c2cc(N4CCN(C)CC4)nc(N)n2)C(C)C3)CC1` (stereo not drawn) [Example 149, 4-(4-Methylpiperazin-1-yl)-6-[3-methyl-7-(1-propionylpiperidin-4-yl)-3,4-dihydroisoquinolin-2 (1H)-yl]pyrimidin-2-amine], the IC50 was 0.0261 µM. Consider `CC1Cc2ccc(C3CCN(C(=O)C4CC4)CC3)cc2CN1c1cc(N2CCN(C)CC2)nc(N)n1` (stereo not drawn) [Example 150, 4-[7-[1-(Cyclopropylcarbonyl)piperidin-4-yl]-3-methyl-3,4-dihydroisoquinolin-2(1H)-yl]-6-(4-methylpiperazin-1-yl)pyrimidin-2-amine], for which the 50% inhibitory concentration (IC50) was 0.0225 µM. As to `CNC(=O)N1CCC(c2ccc3c(c2)CN(c2cc(N4CCN(C)CC4)nc(N)n2)C(C)C3)CC1` (stereo not drawn) [Example 151, 4-{2-[2-Amino-6-(4-methylpiperazin-1-yl)pyrimidin-4-yl]-3-methyl-1,2,3,4-tetrahydroisoquinolin-7-yl}-N-methylpiperidine-1-carboxamide], the IC50 stood at 0.0421 µM. Against the preceding compound, the IC50 is about 1.9-fold higher. To `CCS(=O)(=O)N1CCC(c2ccc3c(c2)CN(c2cc(N4CCN(C)CC4)nc(N)n2)C(C)C3)CC1` (stereo not drawn) [Example 152, 4-[7-[1-(Ethylsulfonyl)piperidin-4-yl]-3-methyl-3,4-dihydroisoquinolin-2(1H)-yl]-6-(4-methylpiperazin-1-yl)pyrimidin-2-amine] belongs 0.0176 µM; to `CC1Cc2ccc(-c3ccnc(C(=O)N4CC(O)C4)c3)cc2CN1c1cc(N2CCN(C)CC2)nc(N)n1` (stereo not drawn) [Example 153, 1-[(4-{2-[2-Amino-6-(4-methylpiperazin-1-yl)pyrimidin-4-yl]-3-methyl-1,2,3,4-tetrahydroisoquinolin-7-yl}pyridin-2-yl)carbonyl]azetidin-3-ol], 0.027 µM.
